Data: patent US20040209937A1, “Treatment of excessive osteolysis with indolinone compounds” (SUGEN, INC., priority 2003, published 2004)
Entries after “also recorded” stand apart in the source; their conditions may differ.

Assays:
human CSF1R = target: T1, human CSF1R (Homo sapiens, UniProt P07333); assay: CSF1R phosphorylation in 3T3-huCSF1R cells (p-CSF1R Western blot after M-CSF stimulation); type: cell-based; details: M-CSF stimulated, FIG. 1
T1 construct: expressed in transfected cells; host or cells: NIH3T3 (3T3-huCSF1R)
Description: Cells were lysed immediately after stimulation and lysates spun at 4° C. for 20 mins. Supernatant was transferred to new microfuge tubes. For each sample, 500 μg of total protein was immunoprecipitated overnight with a rabbit polyclonal antibody to bead-conjugated human CSF1R (Santa Cruz Biotechnology, CA). A p-CSF1R Western blot was then performed, using anti-phospho-CSF1R (Tyr723) antibody (Cell Signaling Technology, Beverly, Mass.) at 1:1000 dilution.

osteoclast development = assay: Murine osteoclast development in vitro (bone marrow cells + M-CSF and RANKL, TRAP quantitation); type: cell-based, mice
Description: Bone marrow cells were isolated from female Balb/c mice and cultured either in medium alone or with addition of 10 ng/ml murine M-CSF and 100 ng/ml murine RANK ligand (RANKL) from day 0 to induce osteoclast development. […] Osteoclast development on day 7 was assessed by colorimetric quantitation of tartrate resistant acid phosphatase activity (TRAP) as well as counting TRAP positive cells with >3 nuclei.
TRAP staining and quantitation were performed at day 6.

[1] = tested on: 435/HAL-luc breast cancer bone metastases; assay: 435/HAL-luc experimental bone metastasis model, bioluminescence imaging of tumor growth; type: in vivo, mice
Description: The MDA-MB-435-HAL-luc breast cancer xenograft model was used to confirm significant inhibition of the growth of breast cancer bone metastases. The presence of live tumor cells was monitored by bioluminescence imaging with the Xenogen IVIS™ system.
The human breast carcinoma cell line 435/HAL was obtained (Pharmacia Corp., St. Louis, Mo.). […] Stable transfection of 435/HAL cells with luciferase (light emitting enzyme of firefly Photinus pyralis) was then performed. The cells were cotransfected with pGL3-control (Promega, Madison, Wis.) and pTK-Hygro (Clontech, Palo Alto, Calif.) at a 1:4 ratio using Lipofectamine 2000 (Invitrogen, Carlsbad, Calif.). Cells were maintained in Hygromycin (200 μg/ml) (Invitrogen) and resistant colonies isolated by ring cloning. Hygro-resistant colonies were screened for luciferase expression using Promega brite-glo reagent, normalized as RLU/μg protein. A subclone with the highest luciferase activity was selected, which we refer to as ‘435/HAL-luc.’ […]
Mice were injected intraperitoneally with 150 mg/kg of luciferin (Xenogen Corp., Alameda, Calif.), followed by anesthetization with Ketamine/Xylazine five minutes later. […] Briefly, mice were placed on the temperature-controlled bed of the imaging chamber and a gray-scale whole body image of the ventral side of the mice was captured, followed by an overlay of a bioluminescence map representing the spatial distribution of photons detected from cleaved luciferin in the cancer cells expressing luciferase. […] The bioluminescent signal was quantified by counting the pixels within the area drawn around each site of photon emission, using a customized version of the IGOR Pro version 4.0 Software (WaveMetrics, Inc., Lake Oswego, Oreg.) called Living Image version 2.11 (Xenogen Corporation, Alameda, Calif.). The sum of all detected photon counts within a region of interest containing the entire cancer lesion was determined. For evaluation of tumor growth inhibition, the Student's t test was used to assess differences in photon emission readings between treated and control groups (p<0.05 was considered significant). […]

serum pyridinoline (PYD) = assay: Serum PYD ELISA in mice bearing 435/HAL-luc bone metastases (osteolysis); type: in vivo
Text: Athymic mice were inoculated with 3×10^6 435/HAL-luc cells into the left ventricle of the heart on day 0. Twenty days later, mice were imaged using the IVIS™ imaging system and placed into two matched groups of 16 mice based on photon emission, a measure of bioluminescence of the cancer. […] Mice were imaged approximately once a week. […] The femur, mandible and spines were collected from mice treated with either compound 1 or its vehicle, and fixed in Streck's Tissue Fixative prior to bone density scanning and histological analysis. Serum was also collected for measurement of collagen breakdown product pyridinoline (PYD) in the circulation.
Serum PYD ELISA: The parental breast carcinoma line MDA-MB-435, is very well characterized as having osteolytic activity (32). […] Serum samples were collected, aliquoted and frozen at −80° C. until analysis. Serum PYD was measured using a competitive enzyme immunoassay kit following the manufacturer's protocol (Serum PYD, Quidel 8019, San Diego, Calif.). Samples were measured in duplicate.

T1 sequence (P07333 20-972): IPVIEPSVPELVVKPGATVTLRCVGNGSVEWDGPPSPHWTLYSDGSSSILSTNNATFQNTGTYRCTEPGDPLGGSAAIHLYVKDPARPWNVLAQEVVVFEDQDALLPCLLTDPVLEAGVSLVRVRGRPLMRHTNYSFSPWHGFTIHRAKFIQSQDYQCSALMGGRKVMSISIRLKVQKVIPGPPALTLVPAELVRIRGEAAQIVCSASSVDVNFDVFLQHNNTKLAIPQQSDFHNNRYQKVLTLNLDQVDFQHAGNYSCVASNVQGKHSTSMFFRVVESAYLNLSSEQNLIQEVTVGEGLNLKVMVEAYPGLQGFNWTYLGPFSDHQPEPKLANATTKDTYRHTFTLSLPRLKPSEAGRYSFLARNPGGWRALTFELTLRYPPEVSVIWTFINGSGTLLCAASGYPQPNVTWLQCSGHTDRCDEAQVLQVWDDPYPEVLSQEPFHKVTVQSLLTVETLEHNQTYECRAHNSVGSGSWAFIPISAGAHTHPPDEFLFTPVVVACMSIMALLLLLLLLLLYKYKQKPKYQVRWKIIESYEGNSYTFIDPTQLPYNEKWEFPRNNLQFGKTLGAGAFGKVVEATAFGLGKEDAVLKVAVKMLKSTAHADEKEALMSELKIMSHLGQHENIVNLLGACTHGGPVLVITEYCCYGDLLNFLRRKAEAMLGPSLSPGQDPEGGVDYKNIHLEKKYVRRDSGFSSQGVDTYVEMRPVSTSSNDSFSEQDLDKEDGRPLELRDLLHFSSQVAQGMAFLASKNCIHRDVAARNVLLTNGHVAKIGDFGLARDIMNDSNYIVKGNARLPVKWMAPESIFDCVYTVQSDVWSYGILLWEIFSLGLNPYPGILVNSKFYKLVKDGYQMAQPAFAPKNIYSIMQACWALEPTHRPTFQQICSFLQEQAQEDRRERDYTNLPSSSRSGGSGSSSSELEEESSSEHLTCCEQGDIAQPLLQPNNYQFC

Structure (SMILES): CCN(CC)CCNC(=O)c1c(C)[nH]c(C=C2C(=O)Nc3ccc(F)cc32)c1C [compound 1, 5-(5-Fluoro-2-oxo-1,2-dihydro-indol-3-ylidenemethyl)-2,4-dimethyl-1H-pyrrole-3-carboxylic acid (2-diethylamino-ethyl)-amide]
- inhibition of CSF1R phosphorylation (human CSF1R): inhibits CSF1R phosphorylation in a dose-dependent manner; also recorded: inhibits phosphorylation of M-CSF receptors
- effect of time of addition of compound (D0, D2 or D4) on osteoclast development (osteoclast development; 100 nM and 10 nM, TRAP at day 6, FIG. 2b): the later precursor cells are exposed to compound 1, the less inhibitory effect the compound exhibits; also recorded: inhibits an early stage of osteoclast development, but not later stages
- concentrations at which development of osteoclasts is inhibited (osteoclast development; Balb/c bone marrow cells, M-CSF 10 ng/ml + RANKL 100 ng/ml, day 7, TRAP, FIG. 2a): 10 to 100 nM
- inhibition of osteoclast development (osteoclast development; in vitro, FIG. 2a): inhibits osteoclast development in a dose-dependent manner
- live tumor / growth of breast cancer metastases by bioluminescence imaging ([1]; MDA-MB-435-HAL-luc xenograft model): significant reduction in live tumor; also recorded: inhibits the growth of breast cancer metastases
- photon count emission from the mouse bones ([1]; at both doses (80 or 40 mg per kg once daily by gavage), FIG. 3): greatly decreased
- inhibition of tumor growth in bone (photon emission, long bones and mandibles) ([1]; day 41, 80 or 40 mg per kg once daily by gavage, p=0.001): 89%
- serum PYD mean value (serum pyridinoline (PYD); 80 mg per kg): 1.3 ± 0.16 ng/mL
- reduction of serum PYD levels compared to vehicle treated mice (serum pyridinoline (PYD); 14 compound 1 treated vs 12 vehicle treated mice, p=0.047): 30%
- osteolysis as measured by pyridinoline levels (serum pyridinoline (PYD); mice with breast cancer metastases to bone, FIG. 4): less osteolysis
